Earlier results on one compound are cited in patent publication US20210038510A1, “FORMULATIONS OF KINASE INHIBITORS AND PROSTANOIDS” (PULMOKINE, INC., priority 2018, published 2021).

Molecules are shown by their SMILES.

Data set [1] concerns rat monocrotaline model of PAH.
In data set [2] the test system is patients with advanced PAH.
Data set [3] relates to PDGFRβ isoform versus PDGFRα isoform.

With `Cc1ccc(NC(=O)c2ccc(CN3CCN(C)CC3)cc2)cc1Nc1nccc(-c2cccnc2)n1` [Imatinib, imatinib], in data set [1], the “Right ventricular systolic pressure (RVSP)” value was “decreases” and the Survival result is given as “improves survival”. Moreover, the Cardiopulmonary hemodynamics entry in data set [2] is “improves cardiopulmonary hemodynamics”. In data set [3], the “Potency against the PDGFRβ isoform compared with the PDGFRα isoform” value was “less potent”.
